Patent US12371454B2, “Cyclic peptide compound having Kras inhibitory action” (priority 2019, dated 2025)
Starred links: 1 amine or outer side, 2 acyl side, 3 side chain; linkers in the order of their positions; H or OH if unused. Positions of bridges follow the written chain, without caps; N, C: chain ends. Non-standard residues stand in square brackets, D forms with d. Residues, ends and D or L forms follow the SMILES beside them. *: point of attachment. hPhe(3,5-F2-4-CF3) = N[C@@H](CCc1cc(F)c(C(F)(F)F)c(F)c1)C(=O)O; hPhe(3-Cl-4-CF3) = N[C@@H](CCc1ccc(C(F)(F)F)c(Cl)c1)C(=O)O; hPhe(3-F,4-CF3) = N[C@@H](CCc1ccc(C(F)(F)F)c(F)c1)C(=O)O; NMePhe(4-CF3) = CN[C@@H](Cc1ccc(C(F)(F)F)cc1)C(=O)O; 3Oxa8azabicyclo(3.2.1)octane = C1CC2COCC1N2*; NMedβ3hAla = C[C@H](CC(=O)[*:2])N(C)[*:1]; NMeGly(cPent) = CN[C@H](C(=O)O)C1CCCC1; Pro(4,4-F2) = O=C(O)[C@@H]1CC(F)(F)CN1; NMeGly(cBu) = CN[C@H](C(=O)O)C1CCC1; NMeCha = CN[C@@H](CC1CCCCC1)C(=O)O; Hyp = O=C(O)[C@@H]1C[C@@H](O)CN1; NEtLeu = CCN[C@@H](CC(C)C)C(=O)O; NMeAhp(2) = CCCCC[C@H](NC)C(=O)O; NMeChg = CN[C@H](C(=O)O)C1CCCCC1; NMeI = CC[C@H](C)[C@H](NC)C(=O)O; Gly(cBu) = N[C@H](C(=O)O)C1CCC1; NMeD = CN[C@@H](CC(=O)O)C(=O)O; NMeL = CN[C@@H](CC(C)C)C(=O)O; NMePra = C#CC[C@H](NC)C(=O)O; NMeV = CN[C@H](C(=O)O)C(C)C; d(β3hA) = C[C@@H](N)CC(=O)O; NMeS = CN[C@@H](CO)C(=O)O; NMeA = CN[C@@H](C)C(=O)O; Piperidide = C1CCN(*)CC1; Ac5c = NC1(C(=O)O)CCCC1; Aze = O=C(O)[C@@H]1CCN1; Sar = CNCC(=O)O; Propyl = CCC*

Tested on: Human pancreatic cancer cell line AsPC-1
Experiment: Measurement of AsPC-1 cell growth inhibition (AsPC-1 CGI)
Assay type: cell-based
Conditions: 96 h
In short: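 AsPC-1 cells in 15% FBS RPMI-1640 were exposed to test compound for 96 hours at 37° C, with CellTiter-Glo as endpoint.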

SMILES	IC50
C#CC[C@H]1C(=O)N[C@@H]([C@@H](C)CC)C(=O)N(C)[C@@H](C)C(=O)N2CC[C@H]2C(=O)N(C)[C@@H](CC2CCCCC2)C(=O)N(C)CC(=O)N[C@@H](CCc2ccc(C(F)(F)F)c(Cl)c2)C(=O)N2CCC[C@H]2C(=O)NC2(CCCC2)C(=O)N(C)[C@@H](C(C)C)C(=O)N(C)[C@H](C(=O)N2CCCCC2)CC(=O)N1C [Compound 559] ([NMePra]I[NMeA][Aze][NMeCha][Sar][hPhe(3-Cl-4-CF3)]P[Ac5c][NMeV][NMeD]-Piperidide; lactam N-11)	100 to 500 nM
CC[C@H](C)[C@@H]1NC(=O)[C@H](CC(C)C)N(C)C(=O)C[C@@H](C(=O)N2CCCCC2)N(C)C(=O)[C@H](C2CCCC2)N(C)C(=O)C2(CCCC2)NC(=O)[C@@H]2CCCN2C(=O)[C@H](CCc2ccc(C(F)(F)F)c(F)c2)NC(=O)CN(C)C(=O)[C@H](CC2CCCCC2)N(C)C(=O)[C@@H]2CCN2C(=O)[C@H](C)N(C)C1=O [Compound 563] ([NMeL]I[NMeA][Aze][NMeCha][Sar][hPhe(3-F,4-CF3)]P[Ac5c][NMeGly(cPent)][NMeD]-Piperidide; lactam N-11)	20 to 50 nM
CC[C@H](C)[C@@H]1NC(=O)[C@H](CC(C)C)N(C)C(=O)C[C@@H](C(=O)N(C)C)NC(=O)[C@H]([C@@H](C)CC)N(C)C(=O)C2(CCCC2)NC(=O)[C@@H]2CCCN2C(=O)[C@H](CCc2ccc(C(F)(F)F)c(Cl)c2)NC(=O)CN(C)C(=O)[C@H](CC2CCCCC2)N(C)C(=O)[C@@H]2CCN2C(=O)[C@H](C)N(C)C1=O [Compound 568] ([NMeL]I[NMeA][Aze][NMeCha][Sar][hPhe(3-Cl-4-CF3)]P[Ac5c][NMeI]D-NMe2; lactam N-11)	100 to 500 nM
CC[C@H](C)[C@@H]1NC(=O)[C@H](CC2CCCCC2)N(C)C(=O)C[C@@H](C(=O)N2CCCCC2)N(C)C(=O)[C@H](C(C)C)N(C)C(=O)C2(CCCC2)NC(=O)[C@@H]2CCCN2C(=O)[C@H](CCc2ccc(C(F)(F)F)c(Cl)c2)NC(=O)CN(C)C(=O)[C@H](CC2CCCCC2)N(C)C(=O)[C@@H]2CCN2C(=O)[C@H](C)N(C)C1=O [Compound 572] ([NMeCha]I[NMeA][Aze][NMeCha][Sar][hPhe(3-Cl-4-CF3)]P[Ac5c][NMeV][NMeD]-Piperidide; lactam N-11)	100 to 500 nM
CC(C)C[C@H]1C(=O)N[C@@H](C2CCC2)C(=O)N(C)[C@@H](C)C(=O)N2CC[C@H]2C(=O)N(C)[C@@H](CC2CCCCC2)C(=O)N(C)CC(=O)N[C@@H](CCc2ccc(C(F)(F)F)c(Cl)c2)C(=O)N2CCC[C@H]2C(=O)NC2(CCCC2)C(=O)N(C)[C@@H](C(C)C)C(=O)N[C@H](C)CC(=O)N1C [Compound 580] (cyclo([Ac5c][NMeV][d(β3hA)][NMeL][Gly(cBu)][NMeA][Aze][NMeCha][Sar][hPhe(3-Cl-4-CF3)]P))	100 to 500 nM
CC[C@H](C)[C@@H]1NC(=O)[C@H](CC(C)C)N(C)C(=O)C[C@@H](C(=O)N2CCCCC2)N(C)C(=O)[C@H](C(C)C)N(C)C(=O)C2(CCCC2)NC(=O)[C@@H]2CCCN2C(=O)[C@H](CCc2ccc(C(F)(F)F)c(F)c2)NC(=O)CN(C)C(=O)[C@H](CC2CCCCC2)N(C)C(=O)[C@@H]2CCN2C(=O)CN(C)C1=O [Compound 599] ([NMeL]I[Sar][Aze][NMeCha][Sar][hPhe(3-F,4-CF3)]P[Ac5c][NMeV][NMeD]-Piperidide; lactam N-11)	100 to 500 nM
CC[C@H](C)[C@@H]1NC(=O)[C@H](CC(C)C)N(C)C(=O)C[C@@H](C)N(C)C(=O)[C@H](C2CCCCC2)N(C)C(=O)C2(CCCC2)NC(=O)[C@@H]2CC(F)(F)CN2C(=O)[C@H](CCc2cc(F)c(C(F)(F)F)c(F)c2)NC(=O)CN(C)C(=O)[C@H](Cc2ccc(C(F)(F)F)cc2)N(C)C(=O)[C@@H]2CCN2C(=O)[C@H](C)N(C)C1=O [Compound 606] (cyclo([Ac5c][NMeChg][NMedβ3hAla][NMeL]I[NMeA][Aze][NMePhe(4-CF3)][Sar][hPhe(3,5-F2-4-CF3)][Pro(4,4-F2)]))	100 to 500 nM
CCCCC[C@H]1C(=O)N[C@@H]([C@@H](C)CC)C(=O)N(C)[C@@H](C)C(=O)N2CC[C@H]2C(=O)N(C)[C@@H](COCCC)C(=O)N(C)CC(=O)N[C@@H](CCc2ccc(C(F)(F)F)c(Cl)c2)C(=O)N2CCC[C@H]2C(=O)NC2(CCCC2)C(=O)N(C)[C@@H](C2CCCC2)C(=O)N(C)[C@H](C(=O)N2C3CCC2COC3)CC(=O)N1C [Compound 622] ([NMeAhp(2)]I[NMeA][Aze][NMeS](Propyl)[Sar][hPhe(3-Cl-4-CF3)]P[Ac5c][NMeGly(cPent)][NMeD]-{3Oxa8azabicyclo(3.2.1)octane}; lactam N-11)	20 to 50 nM
CCO[C@@H]1C[C@H]2C(=O)NC3(CCCC3)C(=O)N(C)[C@@H](C3CCCCC3)C(=O)N(C)[C@H](C)CC(=O)N(C)[C@@H](CC(C)C)C(=O)N[C@@H]([C@@H](C)CC)C(=O)N(C)[C@@H](C)C(=O)N3CC[C@H]3C(=O)N(C)[C@@H](Cc3ccc(C(F)(F)F)cc3)C(=O)N(C)CC(=O)N[C@@H](CCc3ccc(C(F)(F)F)c(Cl)c3)C(=O)N2C1 [Compound 652] (cyclo([Ac5c][NMeChg][NMedβ3hAla][NMeL]I[NMeA][Aze][NMePhe(4-CF3)][Sar][hPhe(3-Cl-4-CF3)][Hyp](Et)))	50 to 100 nM
CC[C@H](C)[C@@H]1NC(=O)[C@H](CC(C)C)N(C)C(=O)C[C@@H](C)NC(=O)[C@H](C(C)C)N(C)C(=O)C2(CCCC2)NC(=O)[C@@H]2CCCN2C(=O)[C@H](CCc2ccc(C(F)(F)F)c(Cl)c2)NC(=O)CN(C)C(=O)[C@H](CC2CCCCC2)N(C)C(=O)[C@@H]2CCN2C(=O)CN(C)C1=O [Compound 663] (cyclo([Ac5c][NMeV][d(β3hA)][NMeL]I[Sar][Aze][NMeCha][Sar][hPhe(3-Cl-4-CF3)]P))	100 to 500 nM
CC[C@H](C)[C@@H]1NC(=O)[C@H](CC(C)C)N(CC)C(=O)C[C@@H](C(=O)N2CCCCC2)N(C)C(=O)[C@H](C(C)C)N(C)C(=O)C2(CCCC2)NC(=O)[C@@H]2CCCN2C(=O)[C@H](CCc2ccc(C(F)(F)F)c(Cl)c2)NC(=O)CN(C)C(=O)[C@H](CC2CCCCC2)N(C)C(=O)[C@@H]2CCN2C(=O)[C@H](C)N(C)C1=O [Compound 667] ([NEtLeu]I[NMeA][Aze][NMeCha][Sar][hPhe(3-Cl-4-CF3)]P[Ac5c][NMeV][NMeD]-Piperidide; lactam N-11)	100 to 500 nM
CC[C@H](C)[C@@H]1NC(=O)[C@H](CC(C)C)N(C)C(=O)C[C@@H](C(=O)N2CCCCC2)N(C)C(=O)[C@H](C2CCC2)N(C)C(=O)C2(CCCC2)NC(=O)[C@@H]2CCCN2C(=O)[C@H](CCc2ccc(C(F)(F)F)c(Cl)c2)NC(=O)CN(C)C(=O)[C@H](CC2CCCCC2)N(C)C(=O)[C@@H]2CCN2C(=O)[C@H](C)N(C)C1=O [Compound 672] ([NMeL]I[NMeA][Aze][NMeCha][Sar][hPhe(3-Cl-4-CF3)]P[Ac5c][NMeGly(cBu)][NMeD]-Piperidide; lactam N-11)	100 to 500 nM
CC[C@H](C)[C@@H]1NC(=O)[C@H](CC(C)C)N(C)C(=O)C[C@@H](C(=O)N2CCCCC2)N(C)C(=O)[C@H]([C@@H](C)CC)N(C)C(=O)C2(CCCC2)NC(=O)[C@@H]2CCCN2C(=O)[C@H](CCc2ccc(C(F)(F)F)c(F)c2)NC(=O)CN(C)C(=O)[C@H](C2CCCC2)N(C)C(=O)[C@@H]2CCN2C(=O)[C@H](C)N(C)C1=O [Compound 674] ([NMeL]I[NMeA][Aze][NMeGly(cPent)][Sar][hPhe(3-F,4-CF3)]P[Ac5c][NMeI][NMeD]-Piperidide; lactam N-11)	50 to 100 nM
